{"source": "patent US10947566B1", "about": "“Hydrogen peroxide production method, system, and apparatus” (SOLUGEN, INC., priority 2015, dated 2021)", "tested_on": "NQO1", "test": "NQO1/NADH/NAC cell-free reaction in 96-well plate: oxygen consumption rate (Seahorse XF Analyzer) and hydrogen peroxide produced (absorption at 240 nm)", "assay_type": "biochemical", "text": "Referring now to FIG. 1C-1D, data graphs are provided illustrating the results of one sample experiment for hydrogen peroxide produced using the one or more embodiments of the present disclosure described herein. In particular, FIG. 1C illustrates the generation of superoxide radicals by using the Oxygen Consumption Rate (OCR) with respect to time as a proxy for one experiment. Here, the experiment comprised using a Seahorse Bioscience XF Analyzer® instrument to measure the OCR with respect to time. In addition, a 96-well plate was used wherein each well was filled with 140 microliters of 100 units of NQO1, NADH, 4 micromolar NAC (β-Lacaphone), 50 millimolar Tris-HCl at pH 7 wherein the solutions were kept at atmospheric temperature. […] Further, at the conclusion of this 7-hour period, approximately […] hydrogen peroxide was produced and measured. […] Specifically, referring to FIG. 1D, the hydrogen peroxide concentration was measured using a spectrophotometric absorption of 240 nm corresponding to hydrogen peroxide."}
{"smiles": "CC1(C)CCC2=C(O1)c1ccccc1C(=O)C2=O", "note": "[β-lapachone]", "values": [{"measurement": "resulting hydrogen peroxide concentration", "setting": "7-hour run cycle, spectrophotometric absorption 240 nm", "value": "> 30", "unit": "%"}, {"measurement": "Oxygen Consumption Rate (OCR) with respect to time, proxy for generation of superoxide radicals", "setting": "100 units NQO1, NADH, 4 micromolar NAC, 50 millimolar Tris-HCl pH 7, atmospheric temperature, 7-hour period, measured every 2 minutes, versus DMSO vehicle control wells", "value": "dramatically increased and sustained OCR"}, {"measurement": "hydrogen peroxide produced and measured", "setting": "at conclusion of 7-hour period, 100 units NQO1, NADH, 4 micromolar NAC, 50 millimolar Tris-HCl pH 7, spectrophotometric absorption 240 nm", "value": "approximately 12 molar"}]}
